Data from article PMC7856885 (Advanced Science, 2020).
Entries after “also recorded” stand apart in the source; their conditions may differ. Where two headings read alike, the source gives them in different places. Residues, ends and D or L forms follow the SMILES beside them. *: point of attachment. X1 = CC(=O)O[C@H]1C(=O)[C@@]2(C)[C@H]([C@H](OC(=O)c3ccccc3)[C@]3(O)C[C@H](OC(=O)[C@H](OC(=O)CC(=O)*)[C@@H](NC(=O)c4ccccc4)c4ccccc4)C(C)=C1C3(C)C)[C@]1(OC(C)=O)CO[C@@H]1C[C@@H]2O

How the values were obtained:
[1] = Solubility in PBS at 3 mg mL^−1 (appearance of the solution); format: physicochemical
U251 = assay: MTS cell proliferation assay; format: cell-based; conditions: Homo sapiens
Description: (§1) The human GBM cell lines (U87MG and U251) were respectively obtained from the American Type Culture Collection (ATCC, Manassas, VA) and the China Academic Sinica Cell Repository (Shanghai, China) and cultured in accordance with the protocol of the supplier. In brief, all the cell lines were maintained in Dulbecco's Modified Eagle Medium (DMEM; Gibco, Grand Island, NY) supplemented with 10% fetal bovine serum (FBS; Biological Industries, Kibbutz Beit Haemek, Israel). Cells were incubated in a humidified incubator at 37 °C under 5% CO2 atmosphere.
(§2) The cells treated with PBS and 100 × 10^−6 м SynB3‐PVGLIG were used as the control and the dual‐functional peptide control, respectively. After treatment, the cells were washed with PBS three times and subsequently incubated with 20 µL Cell Titer 96AQeuous One Solution Reagent (Promega, Madison, WI, USA) for 2 h at 37 °C. The absorbance was measured on a Synergy microplate reader (BioTek Instruments, Winooski, VT) at 490 nm. All the data were obtained from three independent experiments performed in three wells. The absorbance of cells in the control group was taken as 100% viability, and the inhibition rate of cell viability was counted by using the following equation: % Inhibition rate = (Absorbancecontrol − Absorbancetest)/(Absorbancecontrol − Absorbanceblank) × 100.

U87MG = assay: MTS cell proliferation assay; format: cell-based; conditions: Homo sapiens, U-87 MG, linear regression
Description: as §1, §2

U251+MMP‐2 siRNA = assay: MTS cell proliferation assay; format: cell-based; conditions: Homo sapiens
Description: as §1
(§3) Homo‐MMP‐2 siRNA and nonsilencing siRNA were designed and synthesized by GenePharma (Suzhou, China). The transfection of siRNA was performed using the X‐tremeGENE siRNA transfection reagent (Roche, Mannheim, Germany) in accordance with the manufacturer's instructions. Before transfection, all the cell lines were inoculated at a density of 5 × 10^5 cells per well in a 6‐well plate. After incubation overnight, the cells were washed with fresh DMEM medium without FBS. At the same time, the reagent of transfection was mixed with homo‐MMP‐2 siRNA or nonsilencing siRNA (50 × 10^−9 м) for 15 min at a room temperature. The solution of the transfection complex was then added into the cell for 24 h. As a negative control group, a nonsilencing siRNA was transfected in the cell line in order to eliminate the influence of the transfection reagent.
as §2

U87MG+MMP‐2 siRNA = assay: MTS cell proliferation assay; format: cell-based; conditions: Homo sapiens
Description: as §1, §3, §2

[2] = Real‐time fluorescence imaging (Cy5) and biodistribution analysis; format: in vivo, U87MG xenograft nude mice; conditions: Cy5‐labeled; for Drug distribution at the tumor site in the brain: 5.25 µmol/5 mL kg^−1
Description: An untreated group was administered with physiological saline as a control. Real‐time fluorescence images were captured and analyzed using the IVIS Lumina Imaging System (PerkinElmer, Waltham, MA). […] At 0.5, 2, 4, 12, 24 and 48 h after administration, 3 mice were taken from each group to capture real‐time fluorescence images of the tumor and drug distribution, and the images were analyzed by the IVIS Lumina Imaging System. The excitation and emission quantitative wavelengths used were 640 nm and 700 nm, respectively. At the end of each experiment, animals were euthanized and their brains, lungs, hearts, livers, and kidneys were harvested and further tested by the IVIS Lumina imaging system to determine the drug distribution in tissue from each organ.

[3] = biological target: T1, recombinant human MMP‐2 protein (Homo sapiens, UniProt P08253); assay: Release study: cleavage by MMP‐2, HPLC/MS; format: in vitro ADME
T1 construct: purchased PeproTech (Rocky Hill, NJ, USA)
T1 sequence (P08253 110-660): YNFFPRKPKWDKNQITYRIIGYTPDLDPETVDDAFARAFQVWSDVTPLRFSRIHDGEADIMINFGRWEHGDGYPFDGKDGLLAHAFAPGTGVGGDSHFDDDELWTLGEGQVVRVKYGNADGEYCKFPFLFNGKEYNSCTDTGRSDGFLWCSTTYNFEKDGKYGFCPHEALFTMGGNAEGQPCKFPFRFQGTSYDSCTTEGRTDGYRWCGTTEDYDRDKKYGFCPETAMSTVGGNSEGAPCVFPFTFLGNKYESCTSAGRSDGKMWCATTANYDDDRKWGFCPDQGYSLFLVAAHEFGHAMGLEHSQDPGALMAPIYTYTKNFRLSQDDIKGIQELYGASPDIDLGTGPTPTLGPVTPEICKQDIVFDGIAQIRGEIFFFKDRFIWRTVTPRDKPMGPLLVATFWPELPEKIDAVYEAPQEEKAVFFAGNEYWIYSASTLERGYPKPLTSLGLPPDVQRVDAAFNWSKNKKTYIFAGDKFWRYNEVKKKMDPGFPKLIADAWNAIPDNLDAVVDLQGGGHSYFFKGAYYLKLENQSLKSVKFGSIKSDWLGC
Description: The recombinant human MMP‐2 protein with 62.0 kDa molecular weight was purchased from PeproTech (Rocky Hill, NJ, USA). To observe the ability of cleavage in vitro, MMP‐2 was incubated with 4‐aminophenylmercuric acetate (7 × 10^−3 M) at 37 °C for 1 h. […] The reacting solution (50 µL) was then collected and analyzed through HPLC/MS. The spectra data were collected at 220 nm using gradient solvent conditions. BEH C18, 1.7 × 10^−6 м, 100 × 2.1 mm column was used. The chromatographic conditions used for the analyses were: solvent A – 0.1% formic acid in water; solvent B – 0.1% formic acid in acetonitrile: 0–15 min: 2% MeCN, 15–18 min: 100% MeCN, 18–20 min: 2% MeCN, with a flow rate of 0.3 mL min^−1.

[4] = Cerebral distribution: free PTX in tumor and tumor‐free brain tissue by HPLC/MS; format: in vivo, nude mice with orthotopic U87MG transplantation
Description: PTX levels in the mouse brains were measured by the HPLC/MS method. […] Tumor‐free brain tissue as well as the tumor were isolated and weighed separately. The tissue was placed on a 35 mm dish and washed with PBS on ice. The tissue was then cut into small pieces with a surgical scissor and transferred into a 1.5 mL centrifuge tube. Appropriate amounts of 50% methanol were added into the tube to prepare the tissue suspension (0.2 g mL^−1). The tissue suspensions were thoroughly homogenized by an ultrasonic cell disrupter. Thereafter, the tissue homogenates were centrifuged at 10 000 × g for 30 min. The precipitate was removed, and the supernatant was collected for further content analysis by HPLC/MS. […] The drug response values were obtained and analyzed.

MMP‐2 = assay: recombinant human MMP‐2 protein (5 ng µL^−1), activated with 4‐aminophenylmercuric acetate; conditions: 37 °C, up to 3 h
[5] = tumor tissue from brains of nude mice with orthotopic U87MG transplantation after i.v. injection; conditions: BALB/C athymic nude mice, up to 12 h
[6] = tumor‐free (normal) brain tissue of nude mice with orthotopic U87MG transplantation after i.v. injection; conditions: BALB/C athymic nude mice, up to 12 h
[7] = 5.25 µmol/5 mL kg^−1, tail vein

IC50 (U251; U-251, U251, 4 h) [µM] | IC50 (U251; U-251, U251, 24 h) [µM] | IC50 (U251; U-251, U251, 48 h) [µM] | IC50 (U87MG; 4 h) [µM] | IC50 (U87MG; 24 h) [µM] | IC50 (U87MG; 48 h) [µM] | IC50 (U251+MMP‐2 siRNA; 4 h) [µM] | IC50 (U251+MMP‐2 siRNA; 24 h) [µM] | IC50 (U251+MMP‐2 siRNA; 48 h) [µM] | IC50 (U87MG+MMP‐2 siRNA; 4 h) [µM] | IC50 (U87MG+MMP‐2 siRNA; 24 h) [µM] | IC50 (U87MG+MMP‐2 siRNA; 48 h) [µM] | Molecule | Drug distribution at the tumor site in the brain [2] | Tissues in which the fluorescence signal (Cy5) was mainly detected [2, 7] | also measured
181 | 47.1 | 27.4 | 148 | 46.3 | 31.3 | 136 | 31.5 | 23.6 | 209 | 37.3 | 28.5 | CC(=O)O[C@H]1C(=O)[C@@]2(C)[C@H]([C@H](OC(=O)c3ccccc3)[C@]3(O)C[C@H](OC(=O)[C@H](O)[C@@H](NC(=O)c4ccccc4)c4ccccc4)C(C)=C1C3(C)C)[C@]1(OC(C)=O)CO[C@@H]1C[C@@H]2O [PTX, Paclitaxel] | no drug distribution was detected | lungs, liver, and kidneys | Solubility in PBS (appearance) [1]: nearly insoluble
 |  |  |  |  |  |  |  |  |  |  |  | CC[C@H](C)[C@H](NC(=O)[C@H](CC(C)C)NC(=O)CNC(=O)[C@@H](NC(=O)[C@@H]1CCCN1C(=O)CC(=O)O[C@@H](C(=O)O[C@H]1C[C@@]2(O)[C@@H](OC(=O)c3ccccc3)[C@@H]3[C@]4(OC(C)=O)CO[C@@H]4C[C@H](O)[C@@]3(C)C(=O)[C@H](OC(C)=O)C(=C1C)C2(C)C)[C@@H](NC(=O)c1ccccc1)c1ccccc1)C(C)C)C(=O)NCC(=O)N[C@@H](CCCNC(=N)N)C(=O)N[C@@H](CCCNC(=N)N)C(=O)N[C@@H](CC(C)C)C(=O)N[C@@H](CO)C(=O)N[C@@H](Cc1ccc(O)cc1)C(=O)N[C@@H](CO)C(=O)N[C@@H](CCCNC(=N)N)C(=O)N[C@@H](CCCNC(=N)N)C(=O)N[C@@H](CCCNC(=N)N)C(=O)N[C@@H](Cc1ccccc1)C(=O)O [SynB3‐PVGLIG‐PTX, PTX‐2′OH‐malonyl‐PVGLIG‐SynB3] (X1-PVGLIGRRLSYSRRRF-OH) | mainly distributed in the transplanted gliomas | bladder, liver, kidneys, lungs, and brain | Cleavage without MMP‐2 ([3]; 2.5 mg mL^−1, no MMP‐2, HPLC/MS, neither PVG‐PTX nor free PTX detected): could not be cleaved; Percentage of conjugate cleaved by MMP‐2 ([3]; 2.5 mg mL^−1 conjugate, activated MMP‐2 5 ng µL^−1, 0.5 h, HPLC/MS): about 41.18%; Fluorescent signal at 48 h ([2]; 5.25 µmol/5 mL kg^−1, 48 h): could still be detected in brain; Time at which the fluorescent signal in the brain tumor peaked ([2]; 5.25 µmol/5 mL kg^−1, tail vein, imaged 0.5–48 h): 12 h; PTX concentration in tumor, times that of the normal brain ([4]; 2 h after single dose 5.25 µmol/5 mL kg^−1 i.v.): 20 times; Concentration of PTX in the tumor tissue, finally reached ([4]; last time point (sampling 2, 4, 12 h), single dose 5.25 µmol/5 mL kg^−1 i.v., HPLC/MS, n = 5): 456.32 µg G^−1; mean diameter of nanocomplex: 162 nm
3070 | 660 | 213 | 392 | 382 | 514 | 3300 | 869 | 131 | 471 | 414 | 280 | Cn1nnc2c(C(N)=O)ncn2c1=O [TMZ, Temozolomide] |  |  | Solubility in PBS (appearance) ([1]; 3 mg mL^−1 in PBS, visual): nearly insoluble
 |  |  |  |  |  |  |  |  |  |  |  | PVGLIG-RRLSYSRRRF |  |  | fragment found (MMP‐2): PVG‐PTX, 0.5 h; also recorded: SynB3-LIG; fragment found [5]: free PTX, 2 h; fragment found [6]: free PTX, 2 h
